According to the supplement of paper PMC10307832:

How the values were obtained:
Assay in all cases: relative viability (nuclei count vs DMSO), 5 days (fraction); higher = more cells survive
[1] = compound: C1CCC(CC1)N(CCNCCC2=C3C(=C(C=C2)O)NC(=O)CO3)C(=O)CCNCCC4=CC(=C(C=C4)Cl)Cl [AZ505] + CC1(C)CCC(c2ccc(Cl)cc2)=C(CN2CCN(c3ccc(C(=O)NS(=O)(=O)c4ccc(N[C@H](CCN5CCOCC5)CSc5ccccc5)c(S(=O)(=O)C(F)(F)F)c4)cc3)CC2)C1 [Navitoclax] (partner 0.5 µM)
Method in brief: (§1)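 Relative viability is defined as nuclei in treated wells over nuclei in vehicle wells. Duplicate plates were run and medians reported. Lung cancer cell lines in 1536-well plates were dosed by pin tool one day after seeding, with one drug or with a fixed anchor-drug dose plus five library-drug doses (not always all listed) in √10 steps, and nuclei were counted after 5 days.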

[2] = compound: C1CCC(CC1)N(CCNCCC2=C3C(=C(C=C2)O)NC(=O)CO3)C(=O)CCNCCC4=CC(=C(C=C4)Cl)Cl [AZ505] + CS(=O)(=O)CCNCc1ccc(-c2ccc3ncnc(Nc4ccc(OCc5cccc(F)c5)c(Cl)c4)c3c2)o1 [Lapatinib] (partner 2 µM)
Method in brief: as §1

[3] = compound: Cn1c(=O)n(-c2ccc(C(C)(C)C#N)cc2)c2c3cc(-c4cnc5ccccc5c4)ccc3ncc21 [Dactolisib] + CCNC(=O)c1noc(-c2cc(C(C)C)c(O)cc2O)c1-c1ccc(CN2CCOCC2)cc1 [Luminespib] (partner 0.01 µM)
Method in brief: as §1

[4] = compound: Cn1c(=O)n(-c2ccc(C(C)(C)C#N)cc2)c2c3cc(-c4cnc5ccccc5c4)ccc3ncc21 [Dactolisib] + Cc1nc(Nc2ncc(C(=O)Nc3c(C)cccc3Cl)s2)cc(N2CCN(CCO)CC2)n1 [Dasatinib] (partner 0.075 µM)
Method in brief: as §1

Cell Line | relative viability ([1]; first compound 0.08 µM) | relative viability ([1]; first compound 0.253 µM) | relative viability ([1]; first compound 0.8 µM) | relative viability ([1]; first compound 2.53 µM) | relative viability ([1]; first compound 8 µM) | relative viability ([2]; first compound 0.08 µM) | relative viability ([2]; first compound 0.253 µM) | relative viability ([2]; first compound 0.8 µM) | relative viability ([2]; first compound 2.53 µM) | relative viability ([2]; first compound 8 µM) | relative viability ([3]; first compound 0.002 µM) | relative viability ([3]; first compound 0.006325 µM) | relative viability ([3]; first compound 0.02 µM) | relative viability ([3]; first compound 0.06325 µM) | relative viability ([3]; first compound 0.2 µM) | relative viability ([4]; first compound 0.002 µM) | relative viability ([4]; first compound 0.006325 µM) | relative viability ([4]; first compound 0.02 µM) | relative viability ([4]; first compound 0.06325 µM) | relative viability ([4]; first compound 0.2 µM)
SK-LU-1 | 0.716 | 0.406 | 0.451 | 0.482 | 0.351 | 0.477 | 0.651 | 0.578 | 0.537 | 0.712 | 0.211 | 0.18 | 0.214 | 0.159 | 0.132 | 0.148 | 0.172 | 0.162 | 0.145 | 0.127
COR-L23 | 0.893 | 1.01 | 0.877 | 0.833 | 0.928 | 0.873 | 0.987 | 0.878 | 0.82 | 0.74 | 0.678 | 0.49 | 0.284 | 0.123 | 0.138 | 0.634 | 0.471 | 0.543 | 0.169 | 0.144
NCI-H2087 | 1.01 | 0.975 | 1.05 | 0.989 | 0.873 | 0.856 | 1.01 | 0.983 | 1.31 | 0.958 | 0.281 | 0.164 | 0.146 | 0.128 | 0.121 | 0.782 | 0.771 | 0.86 | 0.359 | 0.272
LC-2-ad | 0.285 | 0.594 | 0.528 | 0.491 | 0.54 | 0.949 | 0.957 | 0.92 | 1 | 0.921 | 1.14 | 0.923 | 0.922 | 0.551 | 0.524 | 0.495 | 0.486 | 0.491 | 0.349 | 0.297
NCI-H1915 | 0.749 | 0.781 | 0.733 | 0.783 | 0.763 | 1.01 | 1.07 | 0.985 | 1.05 | 1.04 | 0.78 | 0.823 | 0.692 | 0.516 | 0.442 | 0.357 | 0.332 | 0.308 | 0.241 | 0.175
NCI-H1793 | 0.352 | 0.405 | 0.455 | 0.396 | 0.428 | 0.541 | 0.524 | 1.04 | 0.75 | 0.889 | 0.155 | 0.15 | 0.164 | 0.163 | 0.165 | 0.388 | 0.312 | 0.253 | 0.16 | 0.134
NCI-H2023 | 0.958 | 0.945 | 0.997 | 1.2 | 0.959 | 0.674 | 0.822 | 0.845 | 0.917 | 0.815 | 0.643 | 0.562 | 0.217 | 0.0703 | 0.0888 | 0.487 | 0.454 | 0.376 | 0.0921 | 0.0851
COR-L 105 | 0.772 | 0.692 | 0.83 | 0.844 | 0.778 | 0.344 | 0.302 | 0.349 | 0.339 | 0.372 | 0.776 | 0.889 | 0.55 | 0.334 | 0.254 | 0.294 | 0.293 | 0.309 | 0.2 | 0.202
